Assay results as given in article PMC9953746, “Dimeric Benzodiazepines as Peptide Mimetics to Overcome p53-Dependent Drug Resistance of Tumors” (Biomolecules, 2023).
Read-outs that look alike come from different tables or passages of the source. Marks after values point to notes of the source that are not given here.

Experiments:
solid tumors = system: solid tumors; set-up: method as in PMID 4959850; conditions: cited from earlier work
[1] = system: normal skin fibroblasts BJ; assay: MTT cell viability assay, BJ; assay type: cell-based, human; conditions: 72 h, read-out: IC50 BJ (normal skin)
Text: (§1) The following cell lines were used in this study: epidermoid carcinoma A-431 (ATCC® CRL-1555), lung carcinomas A549 (ATCC® CCL-185) and NCI-H1299 (ATCC® CRL-5803), colorectal carcinomas HCT116 (ATCC® CCL-247) and HCT116p53^−/−, normal skin fibroblasts BJ (ATCC® CRL-2522), and normal lung fibroblasts MRC-5 (ATCC® CCL-171). The HCT116 p53^−/− cell line was a kind gift from Professor Bert Vogelstein (John Hopkin’s University, Baltimore, MD, USA). The remaining cell lines were purchased from ATCC (Manassas, VA, USA). The cells were cultured in minimal, Dulbecco’s modified Eagle’s, or Ham’s F-12K medium supplemented with 10% fetal bovine serum (Gibco by Thermo Fisher Scientific, Waltham, MA, USA) and grown under standard culture conditions (37°C, 5% CO2) in a humidified incubator with an oxygen concentration of 21%. All of the experiments were performed with mycoplasma-free cells.
(§2) The viability of the cells was assayed by measuring the conversion of MTT (3-(4,5-dimethylthiazol-2-yl)-2,5-diphenyltetrazolium bromide) to formazan (the rate of this reaction is proportional to the number of surviving cells). The cells were seeded in 96-well culture plates at a density of 3500–5000 cells per well 24 h before the treatment. Six wells were considered for each experimental point (technical repeats). Treatments with increasing concentrations of 10, 11, or cisplatin (0.6–80 μM) were performed for 72 h. The MTT stock solution (Sigma-Aldrich by Merck, Darmstadt, Germany) was added at a final concentration of 0.5 mg/mL. After 4 h of incubation at 37 °C, the water-insoluble formazan was dissolved in a lysis buffer containing 20% SDS, 50% DMF, 2.5% hydrochloric acid, and 2.5% acetic acid. The optical densities were measured at 570 nm using a scanning multi-well spectrophotometer (PARADIGM Detection Platform; Beckman Coulter, Brea, CA, USA). The ratio of the absorbance value of each tested group to the absorbance value of the untreated control was calculated, and each tested group’s cell viability was expressed as a percentage of the control. […]

[2] = system: colorectal carcinoma HCT116p53^−/−; assay: MTT cell viability assay, HCT116p53-/-; assay type: cell-based, human; conditions: for IC50: 72 h, read-out: IC50 HCT116p53^−/− (colon cancer); for SI index: IC50 HCT116p53^−/−/IC50 HCT116: ratio of p53 knockout to wild-type HCT116
Text: as §1
(§3) The viability of the cells was assayed by measuring the conversion of MTT (3-(4,5-dimethylthiazol-2-yl)-2,5-diphenyltetrazolium bromide) to formazan (the rate of this reaction is proportional to the number of surviving cells). The cells were seeded in 96-well culture plates at a density of 3500–5000 cells per well 24 h before the treatment. Six wells were considered for each experimental point (technical repeats). Treatments with increasing concentrations of 10, 11, or cisplatin (0.6–80 μM) were performed for 72 h. The MTT stock solution (Sigma-Aldrich by Merck, Darmstadt, Germany) was added at a final concentration of 0.5 mg/mL. After 4 h of incubation at 37 °C, the water-insoluble formazan was dissolved in a lysis buffer containing 20% SDS, 50% DMF, 2.5% hydrochloric acid, and 2.5% acetic acid. The optical densities were measured at 570 nm using a scanning multi-well spectrophotometer (PARADIGM Detection Platform; Beckman Coulter, Brea, CA, USA). The ratio of the absorbance value of each tested group to the absorbance value of the untreated control was calculated, and each tested group’s cell viability was expressed as a percentage of the control. The cell viability assays were performed at least in triplicate using independent cell cultures.

lung carcinoma A549 = assay: MTT cell viability assay, A549; assay type: cell-based, human; conditions: for IC50: read-out: IC50 A549 (lung cancer)
Text: as §1, §3

[3] = system: colorectal carcinoma HCT116; assay: MTT cell viability assay, HCT116; assay type: cell-based, human; conditions: read-out: IC50 HCT116 (colon cancer)
Text: as §1, §2

[4] = system: epidermoid carcinoma A-431; assay: MTT cell viability assay, A-431; assay type: cell-based, human; conditions: for IC50: read-out: IC50 A-431 (epidermoid cancer); for SI index: IC50 BJ/IC50 A-431: selectivity index, normal skin BJ vs A-431
Text: as §1, §3

HCT116 cells = assay: IncuCyte live-cell imaging, cell proliferation and death assay, HCT116; assay type: cell-based, human; conditions: 40 µM; for time at which cell death starts to increase significantly, HCT116: SYTOX Green Dead Cell Stain; for confluence, HCT116: up to 72 h, untreated 90%, DMSO 84% on the third day
Text: (§4) The cell proliferation and death were estimated in the IncuCyte S3 live-cell imaging system using the SYTOX™ Green Dead Cell Stain (Thermo, cat. no: S34860) and analyzed using the IncuCyte 2019B Rev2 software (Essen BioScience, Ann Arbor, MI, USA), according to the manufacturer’s instructions (https://www.sartorius.com/en/products/live-cell-imaging-analysis/live-cell-analysis-resources/live-cell-imaging-and-analsis-handbook (accessed on 21 October 2022)). The HCT116 and HCT116 p53^−/− cells were seeded in 96-well culture plates at a density of 5000 cells per well 24 h before the treatment. Four wells were considered for each experimental point. Treatments with 10, 11, cisplatin (40 μM), or dimethyl sulfoxide (which was used as a negative control at a concentration equal to the one used to dissolve 10 and 11) were carried out for up to 72 h, and images were recorded every 2 h during this time. The experiment was performed twice.

[5] = system: normal lung fibroblasts MRC-5; assay: MTT cell viability assay, MRC-5; assay type: cell-based, human; conditions: read-out: IC50 MRC-5 (normal lung)
Text: as §1, §3

lung carcinoma NCI-H1299 = assay: MTT cell viability assay, NCI-H1299; assay type: cell-based, human; conditions: for IC50: read-out: IC50 NCI-H1299 (lung cancer)
Text: as §1, §3

HCT116 p53^−/− cells = assay: IncuCyte live-cell imaging, cell proliferation and death assay, HCT116p53-/-; assay type: cell-based, human; conditions: 40 µM; for confluence, HCT116p53^−/−: up to 72 h, untreated 88%, DMSO 83% on the third day; for time at which cell death starts to increase significantly, HCT116p53^−/−: SYTOX Green Dead Cell Stain
Text: as §4

normal IKHE cell line = system: normal IKHE cell line; set-up: method as in PMID 26594756, PMID 32095421; conditions: in vitro; cited from earlier work
HCT-116 = system: HCT-116; set-up: method as in PMID 26594756, PMID 32095421; conditions: in vitro; cited from earlier work
MDA-MB-435 = system: MDA-MB-435; set-up: method as in PMID 26594756, PMID 32095421; conditions: in vitro; cited from earlier work
Calu-3 = system: Calu-3; set-up: method as in PMID 26594756, PMID 32095421; conditions: in vitro; cited from earlier work
HepG2 = system: HepG2; set-up: method as in PMID 26594756, PMID 32095421; conditions: in vitro; cited from earlier work
[6] = system: Heps (liver cancer) cell line; set-up: method as in earlier work; conditions: cited from earlier work
Sarcoma 180 = system: Sarcoma 180; set-up: method as in earlier work; conditions: cited from earlier work
[7] = ratio of IC50 values vs cisplatin

SMILES: Cc1ccc2c(c1O)NC(O)C1CC(/C=C/C(N)=O)=CN1C2=O (centres unmarked) [Anthramycin, anthramycin]
- growth of solid tumors in mice (solid tumors): inhibited the growth of solid tumors in mice

SMILES: N.N.[Cl][Pt][Cl] [Cisplatin, cisplatin, reference compound]
- IC50 ([1]; MTT, mean ± SD, n = 3): 5.06 ± 0.94 µM
- IC50 ([2]; MTT, mean ± SD, n = 3): 10.8 ± 2.86 µM
- SI index: IC50 HCT116p53^−/−/IC50 HCT116 [2]: 3.18 ± 0.79 (*) ^c
- IC50 (lung carcinoma A549; MTT, 72 h, mean ± SD, n = 3): 5.95 ± 1.28 µM
- IC50 ([3]; MTT, 72 h, mean ± SD, n = 3): 3.51 ± 1.16 µM
- IC50 ([4]; MTT, 72 h, mean ± SD, n = 3): 1.56 ± 0.29 µM
- SI index: IC50 BJ/IC50 A-431 [4]: 3.26 ± 0.41 (**) ^c
- SI index: IC50 BJ/IC50 A-431 ([4]; listed as cisplatin): 3.26 ± 0.41
- time of highest number of SYTOX Green positive cells, HCT116 (HCT116 cells): 48 h
- time at which cell death starts to increase significantly, HCT116 (HCT116 cells): 18 h
- confluence, HCT116 (HCT116 cells): up to 16%
- IC50 ([5]; MTT, 72 h, mean ± SD, n = 3): 4.17 ± 0.88 µM
- IC50 (lung carcinoma NCI-H1299; MTT, 72 h, mean ± SD, n = 3): 5.7 ± 0.88 µM
- time to plateau of cell death, HCT116p53^−/− (HCT116 p53^−/− cells): about 72 h
- cell death level (SYTOX Green positive cells) at plateau, HCT116p53^−/− (HCT116 p53^−/− cells; after about 72 h): 5116.3 ± 211.41
- confluence, HCT116p53^−/− (HCT116 p53^−/− cells): up to 16%

SMILES: O=C1NC(CSCSCC2NC(=O)c3cc([N+](=O)[O-])ccc3NC2=O)C(=O)Nc2ccc([N+](=O)[O-])cc21 (centres unmarked) [Compound 10, 3,3′-((methylenebis(sulfanediyl))bis(methylene))bis(7-nitro-3,4-dihydro-1H-benzo[e][1,4]diazepine-2,5-dione)]
- IC50 ([1]; Homo sapiens, Skin fibroblast, MTT, mean ± SD, n = 3): 16.7 ± 2.77 µM
- IC50 ([2]; Homo sapiens, MTT, mean ± SD, n = 3): 5.56 ± 0.74 µM
- SI index: IC50 HCT116p53^−/−/IC50 HCT116 [2]: 1.05 ± 0.19 (ns) ^c (*) ^b
- IC50 (lung carcinoma A549; Homo sapiens, A549, MTT, 72 h, mean ± SD, n = 3): 1.6 ± 0.21 µM
- times more cytotoxic than cisplatin, A549 (lung carcinoma A549; [7]): 3.72 times
- IC50 ([3]; Homo sapiens, HCT-116, MTT, 72 h, mean ± SD, n = 3): 5.31 ± 0.23 µM
- IC50 ([4]; Homo sapiens, A-431, MTT, 72 h, mean ± SD, n = 3): 3.47 ± 0.32 µM
- SI index: IC50 BJ/IC50 A-431 [4]: 4.88 ± 1.08 (**) ^c (ns) ^b
- time at which cell death starts to increase significantly, HCT116 (HCT116 cells): 24 h
- confluence, HCT116 (HCT116 cells): up to 16%
- IC50 ([5]; Homo sapiens, MRC5, 72 h, MTT, 72 h, mean ± SD, n = 3): 16.9 ± 2.96 µM
- IC50 ([5]; MTT, 72 h, mean ± SD, n = 3): 16.9 ± 2.96 µM
- IC50 (lung carcinoma NCI-H1299; Homo sapiens, NCI-H1299, MTT, 72 h, mean ± SD, n = 3): 1.07 ± 0.25 µM
- times more cytotoxic than cisplatin, NCI-H1299 (lung carcinoma NCI-H1299; [7]): 5.33 times
- time at which cell death starts to increase significantly, HCT116p53^−/− (HCT116 p53^−/− cells): 24 h
- confluence, HCT116p53^−/− (HCT116 p53^−/− cells): up to 16%

SMILES: O=C1NC(CSCSCC2NC(=O)c3ccc([N+](=O)[O-])cc3NC2=O)C(=O)Nc2cc([N+](=O)[O-])ccc21 (centres unmarked) [Compound 11, 3,3′-((methylenebis(sulfanediyl))bis(methylene))bis(8-nitro-3,4-dihydro-1H-benzo[e][1,4]diazepine-2,5-dione)]
- IC50 ([1]; Homo sapiens, Skin fibroblast): 23.1 ± 2.34 µM
- IC50 ([2]; Homo sapiens): 6.07 ± 0.9 µM
- SI index: IC50 HCT116p53^−/−/IC50 HCT116 [2]: 1.26 ± 0.3 (ns) ^c (*) ^b
- IC50 (lung carcinoma A549; Homo sapiens, A549, 72 h): 16.3 ± 4.65 µM
- SI index: IC50 MRC-5/IC50 A549 (lung carcinoma A549; selectivity index, normal lung MRC-5 vs A549): 1.86 ± 0.79 (ns) ^c (ns) ^b
- IC50 ([3]; Homo sapiens, HCT-116, 72 h): 4.9 ± 0.53 µM
- IC50 ([4]; Homo sapiens, A-431, 72 h): 3.97 ± 0.87 µM
- time at which cell death starts to increase significantly, HCT116 (HCT116 cells): 36 h
- confluence, HCT116 (HCT116 cells): up to 16%
- IC50 ([5]; Homo sapiens, MRC5, 72 h): 28.7 ± 7.6 µM
- IC50 (lung carcinoma NCI-H1299; Homo sapiens, NCI-H1299, 72 h): 4.91 ± 1.45 µM
- time at which cell death starts to increase significantly, HCT116p53^−/− (HCT116 p53^−/− cells): 36 h
- confluence, HCT116p53^−/− (HCT116 p53^−/− cells): up to 16%

SMILES: N#CCC[C@H]1NC(=O)c2ccccc2-n2c1nc1ccccc1c2=O [auranthine]
- cytotoxic activity against normal IKHE (normal IKHE cell line): no cytotoxic activities
- cytotoxic activity against HCT-116 (HCT-116): no cytotoxic activities
- cytotoxic activity against MDA-MB-435 (MDA-MB-435): no cytotoxic activities
- cytotoxic activity against Calu-3 (Calu-3): no cytotoxic activities
- cytotoxic activity against HepG2 (HepG2): no cytotoxic activities

SMILES: CN1c2ccccc2C(=O)n2c3ccccc3c3ccnc1c32 [evodiagenine]
- cytotoxic activity against Heps (liver cancer) [6]: exhibits cytotoxic activity
- cytotoxic activity against Sarcoma 180 (Sarcoma 180): exhibits cytotoxic activity
